Tests used:
[1] = tested on: Wistar rats; assay: Intravenous bolus of exendin-4 or GLP-1, plasma insulin in fasted anesthetized rats; assay type: in vivo, rat; conditions: for time by which insulin levels return to baseline: 0.4 nmol/kg iv bolus; for urine output during the study: iv bolus, not quantitated
Method: Protocols. Wistar rats were fasted overnight. Following anesthesia with 50 mg/kg pentobarbital, a catheter was placed in the femoral artery for blood sampling. A bolus of either exendin-4 or GLP-1 was given into the saphenous vein (iv) over 30 sec to 12 animals, while a bolus of normal saline (NaCl) was given to the other six. The order of the injections was rotated. Blood (taken at −5, 0, 2, 5, 15, 30, 60, 120, and 180 min) was drawn into heparinized tubes containing EDTA and aprotinin for insulin determination (See Example 1). Animals were acclimated to the facility for at least 2 days.
Assays. Plasma glucose was measured by the glucose oxidase method (Wang et al., 1997). Insulin was measured by RIA as previously described (See Example 1). Hb A1c was assayed using a BIO-RAD (Herculas Calif.) DiaSTAT machine which uses low pressure cation exchange chromatography in conjunction with gradient elution to separate hemoglobin subtypes and variants from hemolyzed blood. The separated hemoglobin fractions were monitored by means of absorption of light at 415 nm.
Statistical methods. All results are given as mean±SEM. T tests were based on the results of an F test that looked at the equality of variance of the two means. […] For determination of the EC50 the basal plasma insulin levels were subtracted and the remaining activity at each concentration was expressed as a percent of the maximal activity (achieved by an excess of peptide). This was then transformed into a logit format where logit=ln (% activity/[100-% activity]) and was plotted as a function of the log concentration of the compound.

[2] = tested on: diabetic mice; assay: Preliminary ip and sc injections, duration of blood sugar lowering; assay type: in vivo, mouse; conditions: for blood sugars 24 hours after ip and sc injections: preliminary experiments
Method: Effects of chronic treatment with exendin-4 in mice. The biological activity of exendin-4, as measured by its ability to lower blood sugar, was much longer than we expected when given ip or subcutaneously to diabetic animals. […] This lead us to design a long-term experiment with exendin-4. At the initiation of the daily ip exendin-4 regimen in the mice fasting blood glucose was 145±51 mg/dl in the non-diabetic mice and 232±38 mg/dl in the diabetic mice. […] Glucose levels dropped to 90±11 mg/dl in the exendin-4-treated animals from 238±51 mg/dl (p<0.002) in the NaCl-treated animals (Table 1). We measured fasting insulin levels in the diabetic animals that received NaCl or exendin-4. They were higher in the animals that received exendin-4 (p<0.002). […] We surmised that the decreased urination in the exendin-4-treated diabetic mice was due to less osmotic diuresis because of lower blood glucose.
This was possibly due to greater variation in the sc technique and perhaps even loss of the peptide during injections in some cases.

[3] = tested on: pancreata; assay: Proliferation and differentiation of pancreatic cells after GLP-1 infusion or exendin-4 injection; assay type: in vivo, rat; conditions: for total number of insulin positive cells: GLP-1 continuous infusion or exendin-4 repeated ip injection for at least two days; for time of maximal differentiation effect: GLP-1 continuous infusion, exendin-4 daily bolus; for persistence of increased number of insulin producing cells after treatment is discontinued: rat, in vivo
Method: Exendin-4, in contrast, was administered intraperitoneally one time daily for five days according to the protocol of Example 2.

[4] = tested on: AR42J cells; assay: Intracellular calcium in single AR42J cells (indo-1); assay type: cell-based, rat
Method: Measurement of intracellular calcium, [Ca^2+]l. AR42J cells were loaded with the fluorescent Ca^2+ probe, indo-1 acetoxymethyl ester (indo-1/AM). […] Both loading with indo-1 and the experiments were carried out at room temperature (22–24° C.). […] The emission field was restricted to a single cell. Indo-1 was excited at 350±5 nm every 5 ms, and the fluorescence emission was split into wavelength bands of 410±5 and 490±5 nm. […] The cell autofluorescence was assessed in a large number of indo-1 non-loaded cells from the same batch. […] Routinely, the cells were exposed to the test solution for 240–300s. Thereafter, the test solution was washed out, while [Ca^2+]l was monitored for additional 120–180s. The test solutions were prepared just prior to the experiment by adding the hormones in standard bathing solution.

[5] = tested on: AR42J cells; assay: Intracellular cAMP in AR42J cells; assay type: cell-based, rat; conditions: 1 h; GLP-1 0.1 to 100 nM, IBMX 100 nM, CCK 0.1 to 100 nM, exendin-4 0.1 to 10 nM
Method: Measurement of cAMP. Cells were grown in 12-well dishes and treated with hormones and reagents±IBMX as described above. They were then washed 3 times in ice-cold PBS and lysed with 1 ml ice-cold […] perchloric acid. The lysates (950 μl) were transferred to microcentrifuge tubes and the pH adjusted to 7.0 using 5 M K2CO3. After centrifugation for 5 min at 10^4 rpm, the supernatant was vacuum dried, and then recovered in 200 μl Tris/EDTA buffer. After addition of 0.15 mM Na2CO3 (50 μl) and 0.15 mM ZnSO^4 (50 μl), followed by incubation for 15 min on ice, the salt precipitate was removed by centrifugation for 15 min at 3.5×10^3 rpm and 50 μl of supernatant was assayed using a cAMP [^3] assay kit (Amersham Corp., Arlington Heights, Ill.), (Steiner et al., 1972).

[6] = tested on: ERK; assay: MAP kinase (ERK) activity in AR42J cells; assay type: cell-based, rat; conditions: 3 days; for ERK (MAP kinase) activity: GLP-1 10 nM, exendin-4 0.1 nM
Method: MAP Kinase Activity. After treatment, 60 mm dishes of 80% confluent cells were lysed at 4° C. in lysis buffer (in mM): 50 TRIS-HCl, PH 8, 150 NaCl, 5 EDTA, 1% NP-40, 0.25% sodium deoxycholate, 1 NaF, 10 sodium pyrophosphate, 0.1 PMSF, 1 sodium orthovanadate, 20 μg/ml aprotinin, and 10 μg/ml leupeptin. The cell lysate was clarified by centrifugation at 16,000×g at 4° C. for 20 min. The clarified cell lysate was immunoprecipitated overnight at 4° C., rotating with 4.5 μg of ERK1-CT antibody and 40 μl of packed protein G+protein A agarose resin (Oncogene Research Product, Cambridge, Mass.). The immune pellet was assayed for MAPK activity using MBP as the substrate. MBP (18.6 μg) was phosphorylated at 20° C. for 10 min in a final volume of 60 μl containing 20 mM Hepes, PH 7.4, 10 mM MgCl2, 1 mM DTT, 20 uM unlabeled ATP and 40 μCi (3,000 Ci/mmol) [^32P]-ATP. The reaction was terminated by the addition of 25 μl of 3× Laemmli sample buffer and heating at 70° C. for 10 min. MAPK activity was assessed by SDS-PAGE and auto-radiography. The autoradiograms were quantified by densitometry.

Compound | maximal insulin response compared with GLP-1 ([1]; 0.4 nmol/kg iv) | time by which insulin levels return to baseline [1] | urine output during the study [1] | duration of lower blood sugars after an ip dose [2] | blood sugars 24 hours after ip and sc injections [2] | total number of insulin positive cells [3] | time of maximal differentiation effect [3] | persistence of increased number of insulin producing cells after treatment is discontinued [3] | potency on [Ca2+]i relative to GLP-1 [4] | intracellular cAMP levels [5] | potency on ERK activation relative to GLP-1 [6] | ERK (MAP kinase) activity [6] | earliest time at which differentiation effect was observed ([3]; continuous infusion) | cells in treated pancreata positive for PCNA ([3]; continuous infusion, five days) | peak [Ca2+]i amplitude, increase over resting indo-1 fluorescence ratio (IFR) ([4]; single cells) | AR42J cells showing [Ca2+]i response ([4]; single cells, CCK 1 nM, glucagon 10 nM)
exendin-4 | approximately doubled | ≤ 60 min | obvious increase in urine output | up to 24 hours | lower blood sugars | increase in total number of insulin positive cells | seven days | at least two weeks | approximately one order of magnitude more potent | did not alter | about 100 fold | markedly increased | – | – | – | –
CC[C@H](C)[C@H](NC(=O)[C@H](Cc1ccccc1)NC(=O)[C@H](CCC(=O)O)NC(=O)[C@H](CCCCN)NC(=O)[C@H](C)NC(=O)[C@H](C)NC(=O)[C@H](CCC(N)=O)NC(=O)CNC(=O)[C@H](CCC(=O)O)NC(=O)[C@H](CC(C)C)NC(=O)[C@H](Cc1ccc(O)cc1)NC(=O)[C@H](CO)NC(=O)[C@H](CO)NC(=O)[C@@H](NC(=O)[C@H](CC(=O)O)NC(=O)[C@H](CO)NC(=O)[C@@H](NC(=O)[C@H](Cc1ccccc1)NC(=O)[C@@H](NC(=O)CNC(=O)[C@H](CCC(=O)O)NC(=O)[C@H](C)NC(=O)[C@@H](N)Cc1c[nH]cn1)[C@@H](C)O)[C@@H](C)O)C(C)C)C(=O)N[C@@H](C)C(=O)N[C@@H](Cc1c[nH]c2ccccc12)C(=O)N[C@@H](CC(C)C)C(=O)N[C@H](C(=O)N[C@@H](CCCCN)C(=O)NCC(=O)N[C@@H](CCCNC(=N)N)C(N)=O)C(C)C [GLP-1] | – | ≤ 10 min | urinated little if any | – | back to baseline | increase in total number of insulin positive cells | seven days | at least two weeks | – | not altered | – | markedly increased | 1 days | Approximately 20% | 1.5–2.5 fold | approximately 50%

Source: patent US7056734B1, “Differentiation of non-insulin producing cells into insulin producing cells by GLP-1 or exendin-4 and uses thereof” (The United States of America as represented by the …, priority 1998, dated 2006)
